Measurements as given in the supplement of paper PMC10307832.

compound: CN1CCN(CC1)C2=CC(=C(C=C2)NC3=NC(=C(S3)C(=O)C4=C(C=CC=C4Cl)Cl)N)OC [XMD14-99] + Nc1ncn([C@H]2C[C@H](O)[C@@H](CO)O2)c(=O)n1 [Decitabine] (partner 2 µM); experiment: relative viability (nuclei count vs DMSO), 5 days (fraction); higher = more cells survive; conditions: first compound 0.08 µM
Procedure, shortened: (§1)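 Medians of duplicate plates are given as relative viability. That measure is the nuclei count in treated wells divided by the count in vehicle wells. Counts were taken on 4× images of lung cancer cell lines in 1536-well plates, 5 days after pin-tool dosing the day after seeding with one drug alone or a fixed anchor-drug dose plus five library-drug doses (not always all listed) in √10 steps.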

Cell Line | relative viability
NCI-H1651 | 0.683
EPLC-272H | 0.386
NCI-H23 | 0.288
NCI-H1792 | 0.497
NCI-H1355 | 0.381
NCI-H322M | 0.684
NCI-H1437 | 0.621
NCI-H1755 | 0.761
NCI-H2085 | 0.561
HCC-15 | 0.668
PC-3 [JPC-3] | 0.75
EKVX | 0.274
LC-2-ad | 0.776
NCI-H1975 | 0.495
SK-LU-1 | 0.606
NCI-H661 | 0.562
RERF-LC-KJ | 0.737

same assay, conditions: first compound 0.8 µM

Cell Line | relative viability
NCI-H1651 | 0.546
EPLC-272H | 0.41
NCI-H23 | 0.262
NCI-H1792 | 0.499
NCI-H1355 | 0.339
NCI-H322M | 0.667
NCI-H1437 | 0.469
NCI-H1755 | 0.68
NCI-H2085 | 0.529
HCC-15 | 0.605
PC-3 [JPC-3] | 0.88
EKVX | 0.322
LC-2-ad | 0.727
NCI-H1975 | 0.412
SK-LU-1 | 0.707
NCI-H661 | 0.55
RERF-LC-KJ | 0.674

same assay, conditions: first compound 2.53 µM

Cell Line | relative viability
NCI-H1651 | 0.601
EPLC-272H | 0.353
NCI-H23 | 0.338
NCI-H1792 | 0.549
NCI-H1355 | 0.343
NCI-H322M | 0.706
NCI-H1437 | 0.458
NCI-H1755 | 0.698
NCI-H2085 | 0.523
HCC-15 | 0.599
PC-3 [JPC-3] | 0.797
EKVX | 0.316
LC-2-ad | 0.777
NCI-H1975 | 0.449
SK-LU-1 | 0.666
NCI-H661 | 0.502
RERF-LC-KJ | 0.665

same assay, conditions: first compound 8 µM

Cell Line | relative viability
NCI-H1651 | 0.509
EPLC-272H | 0.314
NCI-H23 | 0.309
NCI-H1792 | 0.326
NCI-H1355 | 0.346
NCI-H322M | 0.645
NCI-H1437 | 0.417
NCI-H1755 | 0.709
NCI-H2085 | 0.45
HCC-15 | 0.415
PC-3 [JPC-3] | 0.774
EKVX | 0.239
LC-2-ad | 0.745
NCI-H1975 | 0.317
SK-LU-1 | 0.412
NCI-H661 | 0.44
RERF-LC-KJ | 0.506

compound: CN1CCN(CC1)C2=CC(=C(C=C2)NC3=NC(=C(S3)C(=O)C4=C(C=CC=C4Cl)Cl)N)OC [XMD14-99] + CC(=O)Nc1cccc(-n2c(=O)n(C3CC3)c(=O)c3c(Nc4ccc(I)cc4F)n(C)c(=O)c(C)c32)c1 [Trametinib] (partner 0.02 µM); experiment: as above; conditions: first compound 0.08 µM
Procedure, shortened: as §1

Cell Line | relative viability
NCI-H1651 | 0.827
EPLC-272H | 0.274
NCI-H23 | 0.487
NCI-H1792 | 0.419
NCI-H1355 | 0.439
NCI-H322M | 0.491
NCI-H1437 | 0.532
NCI-H1755 | 0.794
NCI-H2085 | 0.49
HCC-15 | 0.415
PC-3 [JPC-3] | 0.749
EKVX | 0.321
LC-2-ad | 0.956
NCI-H1975 | 0.263
SK-LU-1 | 0.538
NCI-H661 | 0.573
RERF-LC-KJ | 0.808

same assay, conditions: first compound 0.8 µM

Cell Line | relative viability
NCI-H1651 | 0.835
EPLC-272H | 0.265
NCI-H23 | 0.326
NCI-H1792 | 0.465
NCI-H1355 | 0.434
NCI-H322M | 0.565
NCI-H1437 | 0.402
NCI-H1755 | 0.777
NCI-H2085 | 0.621
HCC-15 | 0.412
PC-3 [JPC-3] | 0.59
EKVX | 0.298
LC-2-ad | 0.88
NCI-H1975 | 0.416
SK-LU-1 | 0.502
NCI-H661 | 0.598
RERF-LC-KJ | 0.846

same assay, conditions: first compound 2.53 µM

Cell Line | relative viability
NCI-H1651 | 0.88
EPLC-272H | 0.287
NCI-H23 | 0.47
NCI-H1792 | 0.399
NCI-H1355 | 0.355
NCI-H322M | 0.593
NCI-H1437 | 0.347
NCI-H1755 | 0.752
NCI-H2085 | 0.498
HCC-15 | 0.353
PC-3 [JPC-3] | 0.645
EKVX | 0.382
LC-2-ad | 0.998
NCI-H1975 | 0.32
SK-LU-1 | 0.473
NCI-H661 | 0.481
RERF-LC-KJ | 0.76

same assay, conditions: first compound 8 µM

Cell Line | relative viability
NCI-H1651 | 0.835
EPLC-272H | 0.251
NCI-H23 | 0.364
NCI-H1792 | 0.302
NCI-H1355 | 0.33
NCI-H322M | 0.521
NCI-H1437 | 0.305
NCI-H1755 | 0.559
NCI-H2085 | 0.485
HCC-15 | 0.349
PC-3 [JPC-3] | 0.577
EKVX | 0.294
LC-2-ad | 0.873
NCI-H1975 | 0.308
SK-LU-1 | 0.309
NCI-H661 | 0.516
RERF-LC-KJ | 0.682

compound: CN1CCN(CC1)C2=CC(=C(C=C2)NC3=NC(=C(S3)C(=O)C4=C(C=CC=C4Cl)Cl)N)OC [XMD14-99] + CC(C)C[C@H](NC(=O)[C@H](Cc1ccccc1)NC(=O)c1cnccn1)B(O)O [Bortezomib] (partner 0.002 µM); experiment: as above; conditions: first compound 0.08 µM
Procedure, shortened: as §1

Cell Line | relative viability
NCI-H1651 | 0.964
EPLC-272H | 0.886
NCI-H23 | 0.95
NCI-H1792 | 0.982
NCI-H1355 | 1.31
NCI-H322M | 1.12
NCI-H1437 | 0.519
NCI-H1755 | 0.854
NCI-H2085 | 1.13
HCC-15 | 1.04
PC-3 [JPC-3] | 0.901
EKVX | 0.965
LC-2-ad | 0.993
NCI-H1975 | 0.388
SK-LU-1 | 1.43
NCI-H661 | 0.708
RERF-LC-KJ | 1.07

same assay, conditions: first compound 0.8 µM

Cell Line | relative viability
NCI-H1651 | 0.938
EPLC-272H | 1.01
NCI-H23 | 0.908
NCI-H1792 | 0.888
NCI-H1355 | 1.2
NCI-H322M | 1.33
NCI-H1437 | 0.408
NCI-H1755 | 0.947
NCI-H2085 | 1.03
HCC-15 | 0.999
PC-3 [JPC-3] | 0.832
EKVX | 0.998
LC-2-ad | 0.978
NCI-H1975 | 0.359
SK-LU-1 | 1.42
NCI-H661 | 0.669
RERF-LC-KJ | 1.18

same assay, conditions: first compound 2.53 µM

Cell Line | relative viability
NCI-H1651 | 0.981
EPLC-272H | 0.904
NCI-H23 | 1.12
NCI-H1792 | 0.849
NCI-H1355 | 1.15
NCI-H322M | 1.44
NCI-H1437 | 0.323
NCI-H1755 | 0.859
NCI-H2085 | 0.954
HCC-15 | 0.896
PC-3 [JPC-3] | 0.832
EKVX | 0.983
LC-2-ad | 1
NCI-H1975 | 0.347
SK-LU-1 | 1.03
NCI-H661 | 0.793
RERF-LC-KJ | 1.08

same assay, conditions: first compound 8 µM

Cell Line | relative viability
NCI-H1651 | 0.811
EPLC-272H | 0.912
NCI-H23 | 0.728
NCI-H1792 | 0.66
NCI-H1355 | 0.898
NCI-H322M | 1.24
NCI-H1437 | 0.287
NCI-H1755 | 0.795
NCI-H2085 | 0.745
HCC-15 | 0.769
PC-3 [JPC-3] | 0.723
EKVX | 0.736
LC-2-ad | 0.732
NCI-H1975 | 0.272
SK-LU-1 | 0.943
NCI-H661 | 0.674
RERF-LC-KJ | 0.852

compound: N[C@@H]1CCCN(c2c(/C=C3\SC(=O)NC3=O)cccc2-c2ccccc2)C1 [AZD1208] + C[C@@H](Oc1cc(-c2cnn(C3CCNCC3)c2)cnc1N)c1c(Cl)ccc(F)c1Cl [Crizotinib] (partner 1 µM); experiment: as above; conditions: first compound 0.08 µM
Procedure, shortened: as §1

Cell Line | relative viability
NCI-H1651 | 0.899
EPLC-272H | 0.93
NCI-H23 | 0.377
NCI-H1792 | 1.03
NCI-H1355 | 0.974
NCI-H322M | 1.14
NCI-H1437 | 0.979
NCI-H1755 | 0.863
NCI-H2085 | 0.703
HCC-15 | 0.849
PC-3 [JPC-3] | 1.01
EKVX | 0.887
LC-2-ad | 0.488
NCI-H1975 | 0.925
SK-LU-1 | 0.991
NCI-H661 | 1.02
RERF-LC-KJ | 0.868

same assay, conditions: first compound 0.253 µM

Cell Line | relative viability
NCI-H1651 | 0.918
EPLC-272H | 1
NCI-H23 | 0.467
NCI-H1792 | 1.08
NCI-H1355 | 1.09
NCI-H322M | 0.972
NCI-H1437 | 0.961
NCI-H1755 | 0.939
NCI-H2085 | 0.906
HCC-15 | 0.788
PC-3 [JPC-3] | 0.996
EKVX | 1.29
LC-2-ad | 0.401
NCI-H1975 | 1.03
SK-LU-1 | 1.16
NCI-H661 | 1
RERF-LC-KJ | 0.863

same assay, conditions: first compound 0.8 µM

Cell Line | relative viability
NCI-H1651 | 0.83
EPLC-272H | 0.792
NCI-H23 | 0.372
NCI-H1792 | 0.858
NCI-H1355 | 0.997
NCI-H322M | 0.975
NCI-H1437 | 1.03
NCI-H1755 | 0.8
NCI-H2085 | 0.951
HCC-15 | 0.707
PC-3 [JPC-3] | 1.04
EKVX | 0.86
LC-2-ad | 0.421
NCI-H1975 | 0.991
SK-LU-1 | 0.882
RERF-LC-KJ | 0.835

same assay, conditions: first compound 2.53 µM

Cell Line | relative viability
NCI-H1651 | 0.835
EPLC-272H | 0.849
NCI-H23 | 0.426
NCI-H1792 | 0.956
NCI-H1355 | 1.06
NCI-H322M | 0.607
NCI-H1437 | 0.998
NCI-H1755 | 0.777
NCI-H2085 | 0.865
HCC-15 | 0.752
PC-3 [JPC-3] | 1.05
EKVX | 1.01
LC-2-ad | 0.383
NCI-H1975 | 0.933
SK-LU-1 | 0.819
NCI-H661 | 1
RERF-LC-KJ | 0.791

same assay, conditions: first compound 8 µM

Cell Line | relative viability
NCI-H1651 | 0.81
EPLC-272H | 0.726
NCI-H23 | 0.34
NCI-H1792 | 0.907
NCI-H1355 | 0.916
NCI-H322M | 0.974
NCI-H1437 | 1.04
NCI-H1755 | 0.728
NCI-H2085 | 0.882
HCC-15 | 0.641
PC-3 [JPC-3] | 0.982
EKVX | 0.88
LC-2-ad | 0.392
NCI-H1975 | 0.915
SK-LU-1 | 0.674
NCI-H661 | 1.08
RERF-LC-KJ | 0.792
